Results: ChEMBL document CHEMBL5214999, “Identification and Optimization of a Ligand-Efficient Benzoazepinone Bromodomain and Extra Terminal (BET) Family Acetyl-Lysine Mimetic into the Oral Candidate Quality Molecule I-BET432” (J Med Chem, 2022)
≈ marks a conversion by molar mass, not a printed value.

Biological target: T1, Bromodomain-containing protein 4 (Homo sapiens, UniProt O60885)
Test: Inhibition of BRD4 BD2 (unknown origin) measured by TR-FRET assay
Conditions: not given

Row | Compound | IC50 [µM]
1 | CC(=O)N1CCCc2ccccc21 | 126
2 | Cc1noc(C)c1-c1ccccc1 | 158
3 | COC[C@@H](C)n1c(C2CCOCC2)nc2cnc3cc(-c4c(C)noc4C)c(OC)cc3c21 | 0.126
4 | CCS(=O)(=O)c1ccc2c(c1)C(C(N)=O)=CN(C)C(=O)[C@@H]2C | 3.16
5 | CCOc1ccc2c(c1)C(c1cn[nH]c1)=CN(C)C(=O)[C@@H]2C | 0.00398
6 | COCCOc1ccc2c(c1)C=CN(C)C(=O)[C@@H]2C | 0.794
7 | C[C@H]1C(=O)N(C)C=Cc2cc(CCO)ccc21 | 1.58
8 | COc1cc2c(cc1OC)[C@H](C)C(=O)N(C)C=C2 | 50.1
9 | COc1cc2c(cc1OC)[C@@H](C)C(=O)N(C)CC2 | 15.8
10 | COc1cc2c(cc1OC)CC(=O)N(C)C=C2 | 10
11 | COc1ccc2c(c1)C=CN(C)C(=O)[C@@H]2C | 1.58
12 | Cc1nnc(C)n1-c1ccccc1 | > 50.1
13 | C[C@H]1C(=O)N(C)C=Cc2cc(C(O)CO)ccc21 (stereo not given in full) | 2
14 | C[C@H]1C(=O)N(C)C=Cc2cc(C(CO)CO)ccc21 | 2
15 | COc1cc2c(cc1OC)[C@H](C)C(=O)N(C)CC2 | 158
16 | CCc1ccc2c(c1)C=CN(C)C(=O)[C@@H]2C | 0.631
17 | C[C@H]1C(=O)N(C)C=Cc2cc(OC(CO)CO)ccc21 | 1.26
18 | Cc1cc(-c2ccccc2)cn(C)c1=O | 10
19 | C[C@H]1C(=O)N(C)C=Cc2cc(CC3CCOCC3)ccc21 | 0.316
20 | C[C@H]1C(=O)N(C)C=Cc2cc(CN3CCCC3)ccc21 | 7.94
21 | CCOc1ccc2c(c1)C(c1c[nH]cn1)=CN(C)C(=O)[C@@H]2C | 0.01
22 | CCOc1ccc2c(c1)C(n1ccnc1)=CN(C)C(=O)C2C (racemic) | 25.1
23 | CCS(=O)(=O)c1ccc2c(c1)C=CN(C)C(=O)[C@@H]2C (racemic) | 1.26

Biological target: T1, Bromodomain-containing protein 4
Test: Inhibition of BRD4 BD1 (unknown origin) measured by TR-FRET assay
Conditions: not given

Row | Compound | IC50 [µM]
24 | CC(=O)N1CCCc2ccccc21 | 251
25 | Cc1noc(C)c1-c1ccccc1 | 50.1
26 | COC[C@@H](C)n1c(C2CCOCC2)nc2cnc3cc(-c4c(C)noc4C)c(OC)cc3c21 | 0.0398
27 | CCS(=O)(=O)c1ccc2c(c1)C(C(N)=O)=CN(C)C(=O)[C@@H]2C | 1.58
28 | CCOc1ccc2c(c1)C(c1cn[nH]c1)=CN(C)C(=O)[C@@H]2C | 0.00631
29 | COCCOc1ccc2c(c1)C=CN(C)C(=O)[C@@H]2C | 0.316
30 | C[C@H]1C(=O)N(C)C=Cc2cc(CCO)ccc21 | 0.398
31 | COc1cc2c(cc1OC)[C@H](C)C(=O)N(C)C=C2 | 12.6
32 | COc1cc2c(cc1OC)[C@@H](C)C(=O)N(C)CC2 | 3.98
33 | COc1cc2c(cc1OC)CC(=O)N(C)C=C2 | 2
34 | COc1ccc2c(c1)C=CN(C)C(=O)[C@@H]2C | 0.631
35 | Cc1nnc(C)n1-c1ccccc1 | > 50.1
36 | C[C@H]1C(=O)N(C)C=Cc2cc(C(O)CO)ccc21 (stereo not given in full) | 0.398
37 | C[C@H]1C(=O)N(C)C=Cc2cc(C(CO)CO)ccc21 | 0.398
38 | COc1cc2c(cc1OC)[C@H](C)C(=O)N(C)CC2 | 63.1
39 | CCc1ccc2c(c1)C=CN(C)C(=O)[C@@H]2C | 0.2
40 | C[C@H]1C(=O)N(C)C=Cc2cc(OC(CO)CO)ccc21 | 0.398
41 | Cc1cc(-c2ccccc2)cn(C)c1=O | 3.16
42 | C[C@H]1C(=O)N(C)C=Cc2cc(CC3CCOCC3)ccc21 | 0.0631
43 | C[C@H]1C(=O)N(C)C=Cc2cc(CN3CCCC3)ccc21 | 0.501
44 | CCOc1ccc2c(c1)C(c1c[nH]cn1)=CN(C)C(=O)[C@@H]2C | 0.01
45 | CCOc1ccc2c(c1)C(n1ccnc1)=CN(C)C(=O)C2C (racemic) | 39.8
46 | CCS(=O)(=O)c1ccc2c(c1)C=CN(C)C(=O)[C@@H]2C (racemic) | 0.2

Biological target: C-C motif chemokine 2 (Homo sapiens, UniProt P13500)
Test: Inhibition of MCP-1 in LPS-stimulated human whole blood incubate for 24 hrs by immuno assay
Type: tissue-based
Conditions: not given

C-C motif chemokine 2, sequence (P13500 whole entry): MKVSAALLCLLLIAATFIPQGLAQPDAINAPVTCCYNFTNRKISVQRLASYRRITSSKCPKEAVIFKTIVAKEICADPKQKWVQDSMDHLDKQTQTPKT

Row | Compound | IC50 [µM]
47 | CCS(=O)(=O)c1ccc2c(c1)C(C(N)=O)=CN(C)C(=O)[C@@H]2C | 2
48 | CCOc1ccc2c(c1)C(c1cn[nH]c1)=CN(C)C(=O)[C@@H]2C | 0.0251
49 | COCCOc1ccc2c(c1)C=CN(C)C(=O)[C@@H]2C | 1
50 | C[C@H]1C(=O)N(C)C=Cc2cc(CCO)ccc21 | 1
51 | C[C@H]1C(=O)N(C)C=Cc2cc(C(O)CO)ccc21 (stereo not given in full) | 1
52 | C[C@H]1C(=O)N(C)C=Cc2cc(C(CO)CO)ccc21 | 0.631
53 | C[C@H]1C(=O)N(C)C=Cc2cc(OC(CO)CO)ccc21 | 0.631
54 | C[C@H]1C(=O)N(C)C=Cc2cc(CC3CCOCC3)ccc21 | 0.631
55 | C[C@H]1C(=O)N(C)C=Cc2cc(CN3CCCC3)ccc21 | 1.58
56 | CCOc1ccc2c(c1)C(c1c[nH]cn1)=CN(C)C(=O)[C@@H]2C | 0.0501
57 | CCS(=O)(=O)c1ccc2c(c1)C=CN(C)C(=O)[C@@H]2C (racemic) | 0.398

System: not listed separately
Test: Lipophilicity, logD of compound at pH 7.4 by Chromatography
Type: physicochemical
Conditions: buffer

Row | Compound | chromatographic logD
58 | CCS(=O)(=O)c1ccc2c(c1)C(C(N)=O)=CN(C)C(=O)[C@@H]2C | 1.1
59 | CCOc1ccc2c(c1)C(c1cn[nH]c1)=CN(C)C(=O)[C@@H]2C | 3.4
60 | COCCOc1ccc2c(c1)C=CN(C)C(=O)[C@@H]2C | 4
61 | C[C@H]1C(=O)N(C)C=Cc2cc(CCO)ccc21 | 2.6
62 | COc1cc2c(cc1OC)[C@H](C)C(=O)N(C)C=C2 | 3.4
63 | COc1cc2c(cc1OC)[C@@H](C)C(=O)N(C)CC2 | 2.6
64 | COc1cc2c(cc1OC)CC(=O)N(C)C=C2 | 2.6
65 | COc1ccc2c(c1)C=CN(C)C(=O)[C@@H]2C | 4.3
66 | C[C@H]1C(=O)N(C)C=Cc2cc(C(O)CO)ccc21 (stereo not given in full) | 1.1
67 | C[C@H]1C(=O)N(C)C=Cc2cc(C(CO)CO)ccc21 | 1.2
68 | COc1cc2c(cc1OC)[C@H](C)C(=O)N(C)CC2 | 2.5
69 | CCc1ccc2c(c1)C=CN(C)C(=O)[C@@H]2C | 5.9
70 | C[C@H]1C(=O)N(C)C=Cc2cc(OC(CO)CO)ccc21 | 1.3
71 | C[C@H]1C(=O)N(C)C=Cc2cc(CC3CCOCC3)ccc21 | 5.4
72 | C[C@H]1C(=O)N(C)C=Cc2cc(CN3CCCC3)ccc21 | 1.5
73 | CCOc1ccc2c(c1)C(c1c[nH]cn1)=CN(C)C(=O)[C@@H]2C | 2.7
74 | CCOc1ccc2c(c1)C(n1ccnc1)=CN(C)C(=O)C2C (racemic) | 4.3
75 | CCS(=O)(=O)c1ccc2c(c1)C=CN(C)C(=O)[C@@H]2C (racemic) | 3.1

System: not listed separately
Test: Artificial membrane permeability of the compound
Type: ADME
Conditions: PAMPA; read-out: permeability

Row | Compound | Papp [nm/s]
76 | CCS(=O)(=O)c1ccc2c(c1)C(C(N)=O)=CN(C)C(=O)[C@@H]2C | 10
77 | CCOc1ccc2c(c1)C(c1cn[nH]c1)=CN(C)C(=O)[C@@H]2C | 370
78 | COCCOc1ccc2c(c1)C=CN(C)C(=O)[C@@H]2C | 840
79 | C[C@H]1C(=O)N(C)C=Cc2cc(CCO)ccc21 | 240
80 | COc1ccc2c(c1)C=CN(C)C(=O)[C@@H]2C | 880
81 | C[C@H]1C(=O)N(C)C=Cc2cc(C(O)CO)ccc21 (stereo not given in full) | 27
82 | C[C@H]1C(=O)N(C)C=Cc2cc(C(CO)CO)ccc21 | 30
83 | CCc1ccc2c(c1)C=CN(C)C(=O)[C@@H]2C | 730
84 | C[C@H]1C(=O)N(C)C=Cc2cc(OC(CO)CO)ccc21 | 42
85 | C[C@H]1C(=O)N(C)C=Cc2cc(CC3CCOCC3)ccc21 | 710
86 | C[C@H]1C(=O)N(C)C=Cc2cc(CN3CCCC3)ccc21 | 360
87 | CCOc1ccc2c(c1)C(c1c[nH]cn1)=CN(C)C(=O)[C@@H]2C | 460
88 | CCOc1ccc2c(c1)C(n1ccnc1)=CN(C)C(=O)C2C (racemic) | 580
89 | CCS(=O)(=O)c1ccc2c(c1)C=CN(C)C(=O)[C@@H]2C (racemic) | 420

System: not listed separately
Test: Solubility of the compound in saline by CLND method
Type: physicochemical
Conditions: not given

Row | Compound | solubility kinetic [mg/mL]
90 | CCS(=O)(=O)c1ccc2c(c1)C(C(N)=O)=CN(C)C(=O)[C@@H]2C | 0.082 (≈ 254 µM)
91 | CCOc1ccc2c(c1)C(c1cn[nH]c1)=CN(C)C(=O)[C@@H]2C | ≥ 0.115
92 | COCCOc1ccc2c(c1)C=CN(C)C(=O)[C@@H]2C | ≥ 0.128
93 | C[C@H]1C(=O)N(C)C=Cc2cc(CCO)ccc21 | ≥ 0.108
94 | C[C@H]1C(=O)N(C)C=Cc2cc(C(O)CO)ccc21 (stereo not given in full) | ≥ 0.101
95 | C[C@H]1C(=O)N(C)C=Cc2cc(C(CO)CO)ccc21 | ≥ 0.209
96 | C[C@H]1C(=O)N(C)C=Cc2cc(OC(CO)CO)ccc21 | ≥ 0.142
97 | C[C@H]1C(=O)N(C)C=Cc2cc(CC3CCOCC3)ccc21 | ≥ 0.111
98 | C[C@H]1C(=O)N(C)C=Cc2cc(CN3CCCC3)ccc21 | ≥ 0.097
99 | CCOc1ccc2c(c1)C(c1c[nH]cn1)=CN(C)C(=O)[C@@H]2C | ≥ 0.131
100 | CCOc1ccc2c(c1)C(n1ccnc1)=CN(C)C(=O)C2C (racemic) | ≥ 0.065
